Data as given in US10494343B2, “Organic compound, near-infrared fluorescent constant medium containing same, and method for nano-granulating constant medium” (COLLEGE OF MEDICINE POCHON CHA UNIV. INDUSTRY—ACADEMIC …, priority 2015, dated 2019).

Assay: Test Example 1: optical properties of contrast medium according to Preparation Example 2
Format: physicochemical
Set-up: unit not given here
Details: conventional contrast medium, solvent not stated
Protocol: Contrast media were prepared by dissolving compound H per se according to Example 8 in various organic solvents without manufacturing core-shell nanoparticles.
Test Example 1—Evaluation on Optical Properties of Contrast Medium According to Preparation Example 2
The absorption intensity, absorption wavelength, emission wavelength, and quantum yield (ϕf) of the contrast media prepared in Preparation Example 2 are shown in the Table 2.

Row | quantum efficiency (χf) | Compound
1 | 2.58 | CC1(C)C(/C=C/C=C/C=C/C=C2\N(CCCCS(=O)(=O)O)c3ccc4ccccc4c3C2(C)C)=[N+](CCCCS(=O)(=O)[O-])c2ccc3ccccc3c21 [indocyanine green]

Assay: Absorption/emission wavelength of the compounds (Table 1)
Format: physicochemical
Details: DMSO

Row | Compound | Absorption wavelength | Emission wavelength
2 | CCN1/C(=C/C=C2\CC(c3ccc(C(=O)OC)cc3)CC(/C=C/C3=[N+](CC)c4ccc5cc(OC)ccc5c4C3(C)C)=C2Cl)C(C)(C)c2c1ccc1cc(OC)ccc21.[I-] (stereo not shown) [C, 2-((E)-2-((E)-2-chloro-3-((E)-2-(3-ethyl-7-methoxy-1,1-dimethyl-1H-benzo[e]indol-2(3H)-ylidene)ethylidene)-5-(4-(methoxycarbonyl)phenyl)cyclohex-1-enyl)vinyl)-3-ethyl-7-methoxy-1,1-dimethyl-1H-benzo[e]indolium iodide] | 843 nm | 876 nm
3 | CCN1/C(=C/C=C2\CC(c3ccc(C(=O)OC)cc3)CC(/C=C/C3=[N+](CC)c4ccc5cc(S(=O)(=O)O)ccc5c4C3(C)C)=C2Cl)C(C)(C)c2c1ccc1cc(S(=O)(=O)O)ccc21 (stereo not shown) [Compound A, 2-((E)-2-((E)-2-chloro-3-((E)-2-(3-ethyl-1,1-dimethyl-7-sulfo-1H-benzo[e]indo-1-2(3H)-ylidene)ethylidene)-5-(4-(methoxycarbonyl)phenyl)cyclohex-1-enyl)vinyl)-3-ethyl-1,1-dimethyl-1H-benzo[e]indolium-7-sulfonate] | 833 nm | 865 nm
4 | CCN1/C(=C/C=C2\CC(c3ccc(C(=O)OC)cc3)CC(/C=C/C3=[N+](CC)c4ccc5cc(Br)ccc5c4C3(C)C)=C2Cl)C(C)(C)c2c1ccc1cc(Br)ccc21.[I-] (stereo not shown) [Compound B, 7-bromo-2-((E)-2-((E)-3-((E)-2-(7-bromo-3-ethyl-1,1-dimethyl-1H-benzo[e]indol-2(3H)-ylidene)ethylidene)-2-chloro-5-(4-(methoxycarbonyl)phenyl)cyclohex-1-enyl)vinyl)-3-ethyl-1,1-dimethyl-1H-benzo[e]indolium iodide] | 831 nm | 863 nm
5 | CCN1/C(=C/C=C2\CC(C(C)(C)C(=O)OC)CC(/C=C/C3=[N+](CC)c4ccc5cc(S(=O)(=O)O)ccc5c4C3(C)C)=C2Cl)C(C)(C)c2c1ccc1cc(S(=O)(=O)O)ccc21 (stereo not shown) [Compound D, 2-((E)-2-((E)-2-chloro-3-((E)-2-(3-ethyl-1,1-dimethyl-7-sulfo-1H-benzo[e]indol-2(3H)-ylidene)ethylidene)-5-(1-methoxy-2-methyl-1-oxopropan-2-yl)cyclohex-1-enyl)vinyl)-3-ethyl-1,1-dimethyl-1H-benzo[e]indolium-7-sulfonate] | 833 nm | 861 nm
6 | CCN1/C(=C/C=C2\CC(C(C)(C)C(=O)OC)CC(/C=C/C3=[N+](CC)c4ccc5cc(Br)ccc5c4C3(C)C)=C2Cl)C(C)(C)c2c1ccc1cc(Br)ccc21.[I-] (stereo not shown) [Compound E, 7-bromo-2-((E)-2-((E)-3-((E)-2-(7-bromo-3-ethyl-1,1-dimethyl-1H-benzo[e]indol-2(3H)-ylidene)ethylidene)-2-chloro-5-(1-methoxy-2-methyl-1-oxopropan-2-yl)cyclohex-1-enyl)vinyl)-3-ethyl-1,1-dimethyl-1H-benzo[e]indolium iodide] | 833 nm | 865 nm
7 | CCN1/C(=C/C=C2\CC(C(C)(C)C(=O)OC)CC(/C=C/C3=[N+](CC)c4ccc5cc(OC)ccc5c4C3(C)C)=C2Cl)C(C)(C)c2c1ccc1cc(OC)ccc21.[I-] (stereo not shown) [Compound F, 2-((E)-2-((E)-2-chloro-3-((E)-2-(3-ethyl-7-methoxy-1,1-dimethyl-1H-benzo[e]indol-2(3H)-ylidene)ethylidene)-5-(1-methoxy-2-methyl-1-oxopropan-2-yl)cyclohex-1-enyl)vinyl)-3-ethyl-7-methoxy-1,1-dimethyl-1H-benzo[e]indolium iodide] | 843 nm | 881 nm
8 | CCN1/C(=C/C=C2\CC(C(C)(C)C(=O)OC)CC(/C=C/C3=[N+](CC)c4ccc5cc(S(=O)(=O)[O-])ccc5c4C3(C)C)=C2Sc2ccc(C(=O)O)cc2)C(C)(C)c2c1ccc1cc(S(=O)(=O)O)ccc21 (stereo not shown) [Compound G, 2-((E)-2-((E)-2-(4-carboxyphenylthio)-3-((E)-2-(3-ethyl-1,1-dimethyl-7-sulfo-1H-benzo[e]indol-2(3H)-ylidene)ethylidene)-5-(1-methoxy-2-methyl-1-oxopropan-2-yl)cyclohex-1-enyl)vinyl)-3-ethyl-1,1-dimethyl-1H-benzo[e]indolium-7-sulfonate] | 849 nm | 883 nm
9 | CCN1/C(=C/C=C2\CC(C(C)(C)C(=O)OC)CC(/C=C/C3=[N+](CC)c4ccc5cc(OC)ccc5c4C3(C)C)=C2Sc2ccc(C(=O)[O-])cc2)C(C)(C)c2c1ccc1cc(OC)ccc21 (stereo not shown) [Compound H, 4-((E)-6-((E)-2-(3-ethyl-7-methoxy-1,1-dimethyl-1H-benzo[e]indol-2(3H)-ylidene)ethylidene)-2-((E)-2-(3-ethyl-7-methoxy-1,1-dimethyl-1H-benzo[e]indolium-2-yl)vinyl)-4-(1-methoxy-2-methyl-1-oxopropan-2-yl)cyclohex-1-enylthio)benzoate] | 857 nm | 900 nm
10 | CCN1/C(=C/C=C2\CC(C(C)(C)C(=O)OC)CC(/C=C/C3=[N+](CC)c4ccc5cc(OC)ccc5c4C3(C)C)=C2Sc2ccc(C(=O)NCCN)cc2)C(C)(C)c2c1ccc1cc(OC)ccc21.[I-] (stereo not shown) [Compound I, 2-((E)-2-((E)-2-(4-(2-aminoethylcarbamoyl)phenylthio)-3-((E)-2-(3-ethyl-7-methoxy-1,1-dimethyl-1H-benzo[e]indol-2(3H)-ylidene)ethylidene)-5-(1-methoxy-2-methyl-1-oxopropan-2-yl)cyclohex-1-enyl)vinyl)-3-ethyl-7-methoxy-1,1-dimethyl-1H-benzo[e]indolium iodide] | 857 nm | 889 nm

Further lines, results first:

Row | Absorption wavelength | Emission wavelength | Compound
11 | 856 nm | 905 nm | 3-ethyl-2-((E)-2-((E)-3-((E)-2-(3-ethyl-7-methoxy-1,1-dimethyl-1H-benzo[e]indol-2(3H)-ylidene)ethylidene)-2-(4-(2-isothiocyantoethylcarbamoyl)phenylthio)-5-(1-methoxy-2-methyl-1-oxopropan-2-yl)cyclohex-1-enyl) vinyl)-7-methoxy-1,1-dimethyl-1H-benzo[e]indolium iodide [Compound J]
12 | 857 nm | 901 nm | CCN1/C(=C/C=C2\CCCC(/C=C/C3=[N+](CC)c4ccc5cc(OC)ccc5c4C3(C)C)=C2Sc2ccc(C(=O)NCCN)cc2)C(C)(C)c2c1ccc1cc(OC)ccc21.[I-] [Compound K, 2-((E)-2-((E)-2-(4-(2-aminoethylcarbamoyl)phenylthio)-3-((E)-2-(3-ethyl-7-methoxy-1,1-dimethyl-1H-benzo[e]indol-2(3H)-ylidene)ethylidene)cyclohex-1-enyl)vinyl)-3-ethyl-7-methoxy-1,1-dimethyl-1H-benzo[e]indolium iodide]
13 | 857 nm | 896 nm | CCN1/C(=C/C=C2\CC(C(C)(C)C)CC(/C=C/C3=[N+](CC)c4ccc5cc(OC)ccc5c4C3(C)C)=C2Sc2ccc(C(=O)NCCN)cc2)C(C)(C)c2c1ccc1cc(OC)ccc21.[I-] (stereo not shown) [Compound L, 2-((E)-2-((E)-2-(4-(2-aminoethylcarbamoyl)phenylthio)-5-tert-butyl-3-((E)-2-(3-ethyl-7-methoxy-1,1-dimethyl-1H-benzo[e]indol-2(3H)-ylidene)ethylidene)cyclohex-1-enyl)vinyl)-3-ethyl-7-methoxy-1,1-dimethyl-1H-benzo[e]indolium iodide]
